In ChEMBL document CHEMBL1201862, “PubChem BioAssay data set” (2004):
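Dose response: 5 concentrations. Exposure: 48 h. Format: 96-well plates. Endpoint: linear interpolation; highest concentration if not reached. At the GI50, growth is halved.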 Activity calls are given as the source filed them. Rule as the data show it: active = GI50 up to about 1.1 µM and inactive = higher.

Assays:
Assay in all cases: growth of human tumour cells (NCI), 48 h
LOX IMVI = tested on: LOX IMVI
OVCAR-3 = tested on: OVCAR-3
UO-31 = tested on: UO-31
SNB-19 = tested on: SNB-19
SK-OV-3 = tested on: SK-OV-3
SK-MEL-2 = tested on: SK-MEL-2
SW-620 = tested on: SW-620
HCT-15 = tested on: HCT-15
MOLT-4 = tested on: MOLT-4
OVCAR-8 = tested on: OVCAR-8
UACC-62 = tested on: UACC-62
OVCAR-4 = tested on: OVCAR-4
HOP-92 = tested on: HOP-92
ACHN = tested on: ACHN
CAKI-1 = tested on: CAKI-1
NCI-H522 = tested on: NCI-H522
NCI-H23 = tested on: NCI-H23
SR = tested on: SR

Structure (SMILES): COc1ccc(C2=NN(C(=O)COc3ccc(Cl)cc3)C(O)(c3ccc(Cl)cc3)C2)cc1 (configuration not stated)
- GI50 (LOX IMVI): > 100 µM (inactive)
- GI50 (OVCAR-3): > 100 µM (inactive)
- GI50 (UO-31): > 100 µM (inactive)
- GI50 (SNB-19): > 100 µM (inactive)
- GI50 (SK-OV-3): > 100 µM (inactive)
- GI50 (SK-MEL-2): > 100 µM (inactive)
- GI50 (SW-620): > 100 µM (inactive)
- GI50 (HCT-15): > 100 µM
- GI50 (MOLT-4): > 100 µM (inactive)
- GI50 (OVCAR-8): > 100 µM (inactive)
- GI50 (UACC-62): > 100 µM (inactive)
- GI50 (OVCAR-4): > 100 µM (inactive)
- GI50 (HOP-92): > 100 µM (inactive)
- GI50 (ACHN): > 100 µM (inactive)
- GI50 (CAKI-1): > 100 µM (inactive)
- GI50 (NCI-H522): > 100 µM (inactive)
- GI50 (NCI-H23): 36.1 µM (inactive)

Structure (SMILES): CCCCc1c2c(nc3c1CCc1cc4cc5c(nc4nc1-3)-c1nc3c(c(CCCC)c1CC5)CCCC3)CCCC2
- GI50 (LOX IMVI): 41.9 µM (inactive)
- GI50 (OVCAR-3): > 10 µM (inactive)
- GI50 (UO-31): 68.5 µM (inactive)
- GI50 (SNB-19): 34.4 µM (inactive)
- GI50 (SK-OV-3): 36.5 µM (inactive)
- GI50 (SW-620): 40 µM (inactive)
- GI50 (HCT-15): 33.2 µM
- GI50 (SR): 47.4 µM (inactive)
- GI50 (MOLT-4): 35.2 µM (inactive)
- GI50 (OVCAR-8): 39.6 µM (inactive)
- GI50 (UACC-62): 19.6 µM (inactive)
- GI50 (ACHN): 23.8 µM (inactive)
- GI50 (NCI-H522): 43.7 µM (inactive)
- GI50 (NCI-H23): 49.5 µM (inactive)

Structure (SMILES): CCCC12Cc3c(OC)ccc(OC)c3CC(Cc3c(OC)ccc(OC)c31)C2=O (configuration not stated)
- GI50 (OVCAR-3): > 100 µM (inactive)
- GI50 (UO-31): > 100 µM (inactive)
- GI50 (SNB-19): > 100 µM (inactive)
- GI50 (SK-OV-3): > 100 µM (inactive)
- GI50 (SK-MEL-2): > 100 µM (inactive)
- GI50 (SW-620): > 100 µM (inactive)
- GI50 (HCT-15): > 100 µM
- GI50 (SR): 7.29 µM (inactive)
- GI50 (MOLT-4): 7.36 µM (inactive)
- GI50 (OVCAR-8): > 100 µM (inactive)
- GI50 (OVCAR-4): 18.8 µM (inactive)
- GI50 (ACHN): > 100 µM (inactive)
- GI50 (CAKI-1): 9.64 µM (inactive)
- GI50 (NCI-H522): 81.5 µM (inactive)
- GI50 (NCI-H23): > 100 µM (inactive)

Structure (SMILES): COc1ccc(/C=N/Nc2nc(-c3cc4oc(=O)n(C)c4cc3Cl)cs2)cc1OC
- GI50 (LOX IMVI): 28.6 µM (inactive)
- GI50 (OVCAR-3): 9.95 µM (inactive)
- GI50 (UO-31): 13.6 µM (inactive)
- GI50 (SNB-19): 49.2 µM (inactive)
- GI50 (SK-OV-3): > 100 µM (inactive)
- GI50 (SK-MEL-2): 53.1 µM (inactive)
- GI50 (SW-620): 44.1 µM (inactive)
- GI50 (HCT-15): 6.65 µM
- GI50 (SR): 77.4 µM (inactive)
- GI50 (MOLT-4): 9.75 µM (inactive)
- GI50 (OVCAR-8): 36.6 µM (inactive)
- GI50 (UACC-62): 16.8 µM (inactive)
- GI50 (OVCAR-4): 11.2 µM (inactive)
- GI50 (HOP-92): 25.4 µM (inactive)
- GI50 (ACHN): 7.66 µM (inactive)
- GI50 (CAKI-1): 79.3 µM (inactive)
- GI50 (NCI-H23): 6.15 µM (inactive)

Structure (SMILES): Cc1ccc(NC(=O)C2C(=O)N(c3ccc(C)c(C)c3)C(=O)/C2=N/O)cc1C (configuration not stated)
- GI50 (LOX IMVI): 20.9 µM (inactive)
- GI50 (OVCAR-3): > 100 µM (inactive)
- GI50 (UO-31): > 100 µM (inactive)
- GI50 (SNB-19): > 100 µM (inactive)
- GI50 (SK-OV-3): > 100 µM (inactive)
- GI50 (SK-MEL-2): > 100 µM (inactive)
- GI50 (SW-620): 19.3 µM (inactive)
- GI50 (HCT-15): > 100 µM
- GI50 (MOLT-4): > 100 µM (inactive)
- GI50 (OVCAR-8): > 100 µM (inactive)
- GI50 (UACC-62): > 100 µM (inactive)
- GI50 (HOP-92): > 100 µM (inactive)
- GI50 (ACHN): > 100 µM (inactive)
- GI50 (CAKI-1): > 100 µM (inactive)
- GI50 (NCI-H522): > 100 µM (inactive)
- GI50 (NCI-H23): > 100 µM (inactive)

Structure (SMILES): O=C(NNc1ccccc1)/C(=C/c1ccc2c(c1)OCO2)NC(=O)c1ccccc1
- GI50 (LOX IMVI): 41.6 µM (inactive)
- GI50 (OVCAR-3): 69 µM (inactive)
- GI50 (UO-31): > 100 µM (inactive)
- GI50 (SNB-19): > 100 µM (inactive)
- GI50 (SK-OV-3): > 100 µM (inactive)
- GI50 (SK-MEL-2): > 100 µM (inactive)
- GI50 (HCT-15): > 100 µM
- GI50 (SR): 32.2 µM (inactive)
- GI50 (MOLT-4): 55 µM (inactive)
- GI50 (OVCAR-8): > 100 µM (inactive)
- GI50 (UACC-62): > 100 µM (inactive)
- GI50 (OVCAR-4): 66.2 µM (inactive)
- GI50 (HOP-92): > 100 µM (inactive)
- GI50 (ACHN): > 100 µM (inactive)
- GI50 (CAKI-1): > 100 µM (inactive)
- GI50 (NCI-H522): 33.3 µM (inactive)
- GI50 (NCI-H23): > 100 µM (inactive)

Structure (SMILES): CC(C)(C)C(=O)CC(=O)C(C)(C)C.CC(C)(C)C(=O)CC(=O)C(C)(C)C.[SiH4]
- GI50 (OVCAR-3): 2.07 µM (inactive)
- GI50 (UO-31): 1.99 µM (inactive)
- GI50 (SNB-19): 1.96 µM (inactive)
- GI50 (SK-OV-3): 1.87 µM (inactive)
- GI50 (SW-620): 0.847 µM (active)
- GI50 (MOLT-4): 2.11 µM (inactive)
- GI50 (OVCAR-8): 2.92 µM (inactive)
- GI50 (UACC-62): 2.99 µM (inactive)
- GI50 (OVCAR-4): 0.612 µM (active)
- GI50 (HOP-92): 0.692 µM (active)
- GI50 (ACHN): 0.689 µM (active)
- GI50 (CAKI-1): 0.579 µM (active)
- GI50 (NCI-H522): 0.573 µM (active)
- GI50 (NCI-H23): 1.04 µM (active)

Structure (SMILES): COc1ccc(-c2cc(=O)c3c(OC)cccc3o2)c(OC)c1OC
- GI50 (LOX IMVI): > 100 µM (inactive)
- GI50 (OVCAR-3): > 100 µM (inactive)
- GI50 (SK-OV-3): > 100 µM (inactive)
- GI50 (SK-MEL-2): > 100 µM (inactive)
- GI50 (SW-620): > 100 µM (inactive)
- GI50 (HCT-15): > 100 µM
- GI50 (SR): 56.1 µM (inactive)
- GI50 (MOLT-4): 54.6 µM (inactive)
- GI50 (OVCAR-8): > 100 µM (inactive)
- GI50 (UACC-62): > 100 µM (inactive)
- GI50 (OVCAR-4): > 100 µM (inactive)
- GI50 (HOP-92): 39.9 µM (inactive)
- GI50 (ACHN): > 100 µM (inactive)
- GI50 (CAKI-1): > 100 µM (inactive)
- GI50 (NCI-H522): > 100 µM (inactive)
- GI50 (NCI-H23): > 100 µM (inactive)

Structure (SMILES): O=C1Cc2c([nH]c3ccccc23)-c2ccccc2N1 [PAULLONE]
- GI50 (LOX IMVI): 16.5 µM (inactive)
- GI50 (OVCAR-3): 23.1 µM (inactive)
- GI50 (UO-31): 27.2 µM (inactive)
- GI50 (SNB-19): 61.4 µM (inactive)
- GI50 (SK-OV-3): > 100 µM (inactive)
- GI50 (SK-MEL-2): 43.3 µM (inactive)
- GI50 (SW-620): 28.2 µM (inactive)
- GI50 (HCT-15): 30.9 µM
- GI50 (MOLT-4): 17.1 µM (inactive)
- GI50 (OVCAR-8): 40.1 µM (inactive)
- GI50 (OVCAR-4): 43.1 µM (inactive)
- GI50 (HOP-92): 62.5 µM (inactive)
- GI50 (ACHN): 36.6 µM (inactive)
- GI50 (CAKI-1): 42.4 µM (inactive)
- GI50 (NCI-H522): 17.3 µM (inactive)
- GI50 (NCI-H23): 16 µM (inactive)
